Columns and labels:
[1] = test system: patients who suffer from chronic migraine; test: Khenergy phase 2 trial: patient-reported migraine and headache; type: in vivo, human
From the text: (§1) The Khenergy trial (clinicaltrial.gov identifier NCT02909400) was a double blind, randomized, placebo-controlled, single-centre, two-way cross-over trial. Twenty patients, with a confirmed mitochondrial DNA tRNALeu(UUR) m.3243A>G mutation and with clinical signs of mitochondrial disease, were randomized over 2 groups (active or placebo first). After a screening period and a training session, each group had 2 dosing periods of 28 days, with a washout period of at least 28 days in between. On these occasions (i.e. during the dosing periods), patients received 100 mg KH176 twice daily (treatment A) or a matching placebo (treatment B) twice daily for 28 days. Clinical assessments were performed once in a training session prior to baseline, at baseline and in week 4 post dosing during each treatment phase (A and B). Testing conditions and circumstances, with respect to timing of the assessments, hospitalization and meals, were standardized for each assessment period. Furthermore, assessments of biomarkers for mitochondrial functioning, pharmacokinetics and specific safety assessments were performed weekly. Trial results have been published (Janssen, Koene, De Laat, et al., 2018)
Two patients from the Khenergy Phase 2 clinical trial have spontaneously reported a decreased frequency of migraine event during the treatment period with KH176 (reported before unblinding of the study). A third patient retrospectively reported that they had more migraines during the placebo treatment period over the KH176 treatment period.

[2] = test system: patients carrying the mutation m.3243A>G in the mitochondrial DNA; test: Khenergy phase 2 trial: Beck Depression Inventory-II (BDI); type: in vivo, human
From the text: as §1
The effect of KH176 on depression symptoms in patients carrying the mutation m.3243A>G in the mitochondrial DNA was evaluated with the Beck Depression Inventory-II (BDI) score and Hospital Anxiety and Depression Scale (HADS) during the Khenergy phase 2 clinical trial (clinicaltrial.gov identifier NCT02909400). […] This observation was supported by a positive trend in the Hospital Anxiety and Depression Scale (effect size, −1.9 (95% Cl, −3.6 to −0.2); P=0.03).

[3] = 100 mg KH176 twice daily for 28 days vs matching placebo, cross-over

Cc1c(C)c2c(c(C)c1O)CC[C@@](C)(C(=O)N[C@@H]1CCCNC1)O2 [KH176]
effect on migraine events (in words) ([1]; KHENERGY trial, patients who previously chronically suffered from migraine, KH176 treatment period): reduction of the intensity and number of migraine events
headache during the 4 weeks of KH176 ([1]; Patient A, before: severe headaches every day, migraine 2 times a week): NO headache
patients with a positive effect on migraine ([1]; patients of the trial who suffer from chronic migraine): 3 out of 3
Beck Depression Affective Subscale, effect size, comparison KH176-Placebo [2, 3]: −1.1
Beck Depression Inventory total score, effect size, comparison KH176-Placebo [2, 3]: −2.9
effect on depression symptoms (in words) ([2]; KHENERGY trial, mitochondrial disease patients): significantly reduce depression symptoms
